Publication PMC5653814, “Regiospecific Synthesis of Ring A Fused Withaferin A Isoxazoline Analogues: Induction of Premature Senescence by W-2b in Proliferating Cancer Cells” (Scientific Reports, 2017)
Read-outs that look alike come from different tables or passages of the source.

Assays:
[1] = MTT cell viability assay, fR2 normal breast epithelial cells; format: cell-based, human; details: human, fR2 normal breast epithelial cells, read-out: Cytotoxicity IC50, fR2
Procedure: (§1) The cell viability assay was performed according to the procedure previously described with minor modifications. Briefly, MCF7, HCT-116 and fR2 cells were plated in 96 well plates at a density of 5 × 10^3 cells per well and incubated overnight. […] MTT dye solution (2.5 mg/mL) was introduced to the cells in medium 4 h before the completion of the treatment period and the formed formazan crystals were solubilized with DMSO. Optical density was measured with the help of a UV-visible spectrophotometer coupled with microplate reader (TECAN, Infinite M200 Pro), the percent inhibition was calculated and IC50 values were determined with the help of GraphPad Prism software (GraphPad software Inc. CA, USA).
(§2) Data were expressed as the mean ± standard deviation of three independent experiments performed and analyzed by Student’s t-test. IC50 values were determined with the help of GraphPad Prism software Version 5.0 (GraphPad Software, Inc., USA) by taking the log of inhibitor vs. response. A 2-sided value of *P < 0.05 was considered significant in all cases.

HCT-116 cells [2] = assay: MTT cell viability assay, HCT-116; format: cell-based, human; details: read-out: Cytotoxicity IC50, HCT-116
Procedure: as §1, §2

MCF7 cells [3] = assay: MTT cell viability assay, MCF7; format: cell-based, human; details: read-out: Cytotoxicity IC50, MCF7
Procedure: as §1, §2

fR2 cells = assay: MTT cell viability assay, fR2 normal breast epithelial cells; format: cell-based, human; details: 48 h, read-out: Cytotoxicity IC50, fR2
Procedure: as §1, §2

MCF7 cells [4] = assay: SA-β-gal activity assay, MCF7; format: cell-based, human; details: MCF7, five days; doxorubicin 100 nM, WA 2–3 µM
Procedure: (§3) The procedure was followed as described previously with some modifications. Briefly, MCF7 and HCT-116 cells (0.4 × 10^6 per well) were seeded in six-well plates and treated with indicated concentrations of W-2b along with WA, vehicle and positive control doxorubicin for five days. Cells were accordingly washed twice with PBS, fixed with 4% paraformaldehyde for 5 min, rinsed twice with PBS and incubated with freshly prepared staining solution (40 mM citric acid/Na phosphate buffer, 5 mM K4[Fe(CN)6] 3H2O, 5 mM K3[Fe(CN)6], 150 mM sodium chloride, 2 mM magnesium chloride and 1 mg/ml X-gal in distilled water, pH 6.0) for 48 h at 37 °C. Stained cells were thoroughly washed and air dried in dark. Cells were then observed under bright field microscope (NIKON) for the SA-β-gal positive cells and images were captured at 20x magnification.

HCT-116 cells [5] = assay: SA-β-gal activity assay, HCT-116; format: cell-based, human; details: HCT-116, five days; doxorubicin 100 nM, WA 2–3 µM
Procedure: as §3

[6] = test system: 4T1 mouse mammary carcinoma; assay: In vivo tumor growth, 4T1 mouse mammary carcinoma model; details: 25 mg/kg b.w. intraperitoneal, each alternate day for two weeks
Procedure: The experiment was performed according to the pre-standardized protocol with minor modifications. To evaluate the in vivo anti-tumor efficacy of W-2b, healthy female Balb/c mice (25–30 g) were taken. Animals were randomized into three groups, and six animals were taken per group. For the tumor cells implantation, mouse mammary carcinoma 4T1 cells (1 × 10^6 per 200 μL) diluted in serum-free RPMI medium were injected subcutaneously into the mammary pad of each mouse around the second right mammary gland. A week after tumor cell implantation, when the palpable mammary tumors develop, mice were injected intraperitoneally with either vehicle (normal saline) or 5-FU (25 mg/kg/b.w.) or W-2b (25 mg/kg/b.w.) in each alternative day for two weeks. Tumor sizes were measured in each alternate day after tumor cell injection, and the body weight was recorded once in a week. Mice were sacrificed on the 15th day after treatment initiation, and tumors were dissected out carefully from the mammary pad area.

[7] = Homo sapiens, HCT-116, 48 h, 48 h

| SMILES | IC50 at 48 h [1] [µM] | IC50 (HCT-116 cells [2]; [7]) [µM] | IC50 (MCF7 cells [3]; 48 h) [µM] | IC50 (HCT-116 cells [2]; 48 h) [µM] | IC50 (MCF7 cells [3]; Homo sapiens, MCF7, 48 h, 48 h) [µM] | other results |
| --- | --- | --- | --- | --- | --- | --- |
| CC1=C(CO)C(=O)OC(C(C)C2CCC3C4CC5OC56C(O)C5ON=C(c7ccncc7)C5C(=O)C6(C)C4CCC23C)C1 (stereo not drawn) [W-5a, pyridenyl-2-isoxazoline withaferin A] | > 100 | 63.8 ± 5.43 | 3.52 ± 0.185 | – | – | – |
| CC1=C(CO)C(=O)OC(C(C)C2CCC3C4CC5OC56C(O)C5ON=C(c7ccc(F)cc7)C5C(=O)C6(C)C4CCC23C)C1 (stereo not drawn) [W-4a, 4-fluorophenyl-2-isoxazoline withaferin A] | – | – | > 100 | 19.6 ± 1.81 | – | IC50 (fR2 cells): > 100 µM |
| CC1=C(CO)C(=O)OC(C(C)C2CCC3C4CC5OC56C(O)C5ON=C(c7ccncc7)C5C(=O)C6(C)C4CCC23C)C1 (stereo not drawn) [W-5b, pyridenyl-2-isoxazoline withaferin A] | – | – | 9.7 ± 0.55 | 42.4 ± 3.19 | – | IC50 (fR2 cells): 91.2 ± 7.33 µM |
| COc1cccc2c1C(=O)c1c(O)c3c(c(O)c1C2=O)C[C@@](O)(C(=O)CO)C[C@@H]3O[C@H]1C[C@H](N)[C@H](O)[C@H](C)O1 [doxorubicin] | – | – | – | – | – | SA-β-gal staining, senescent cells (in words) (MCF7 cells [4]): substantial increase in the number of cells with distinct senescence phenotype; SA-β-gal staining, senescent cells (in words) (HCT-116 cells [5]): substantial increase in the number of cells with distinct senescence phenotype |
| CC1=C(CO)C(=O)OC(C(C)C2CCC3C4CC5OC56C(O)C5ON=C(c7ccc(C(F)(F)F)cc7)C5C(=O)C6(C)C4CCC23C)C1 (stereo not drawn) [W-11a, 4-trifluorophenyl-2-isoxazoline withaferin A] | > 100 | – | – | 24.5 ± 2.55 | > 100 | – |
| COc1cc(C(F)(F)F)ccc1C1=NOC2C1C(=O)C1(C)C3CCC4(C)C(C(C)C5CC(C)=C(CO)C(=O)O5)CCC4C3CC3OC31C2O (stereo not drawn) [W-9b, 2-methoxy-4-trifluorophenyl-2-isoxazoline withaferin A] | 66.2 ± 7.63 | 15.8 ± 3.31 | – | – | > 100 | – |
| COc1ccc(Br)cc1C1=NOC2C1C(=O)C1(C)C3CCC4(C)C(C(C)C5CC(C)=C(CO)C(=O)O5)CCC4C3CC3OC31C2O (stereo not drawn) [W-7a, 3-bromo-6-methoxyphenyl-2-isoxazoline withaferin A] | > 100 | 8.1 ± 1.66 | – | – | 70.6 ± 5.18 | – |
| CC1=C(CO)C(=O)OC(C(C)C2CCC3C4CC5OC56C(O)C5ON=C(c7ccc(Cl)cc7Cl)C5C(=O)C6(C)C4CCC23C)C1 (stereo not drawn) [W-6a] | > 100 | – | 2.28 ± 0.265 | > 100 | – | – |
| CC(=O)OCC1=C(C)C[C@H]([C@@H](C)C2CCC3C4C[C@H]5O[C@]56[C@@H](OC(C)=O)[C@@H]5ON=C(c7ccc(F)cc7)[C@@H]5C(=O)[C@]6(C)C4CC[C@@]32C)OC1=O (stereo partly drawn) [W-12b, 4-fluorophenyl-2-isoxazoline 4,27-acetylwithaferin A] | 75.6 ± 4.82 | 5.29 ± 0.151 | – | – | 26.9 ± 2.22 | – |
| CC1=C(CO)C(=O)OC(C(C)C2CCC3C4CC5OC56C(O)C5ON=C(c7c(Cl)cccc7Cl)C5C(=O)C6(C)C4CCC23C)C1 (stereo not drawn) [W-10a, 2,6-dichlorophenyl-2-isoxazoline withaferin A] | 98.1 ± 7.18 | 5.28 ± 0.561 | – | – | 58.3 ± 3.24 | – |
| CC1=C(CO)C(=O)OC(C(C)C2CCC3C4CC5OC56C(O)C5ON=C(c7ccc(F)cc7)C5C(=O)C6(C)C4CCC23C)C1 (stereo not drawn) [W-4b, 4-fluorophenyl-2-isoxazoline withaferin A] | > 100 | – | – | > 100 | > 100 | – |
| CC1=C(CO)C(=O)O[C@@H]([C@@H](C)C2CCC3C4C[C@H]5O[C@]56[C@@H](O)[C@H]5ON=C(c7ccc(Cl)cc7)[C@H]5C(=O)[C@]6(C)C4CC[C@@]32C)C1 (stereo partly drawn) [W-1a, 4-chlorophenyl-2-isoxazoline withaferin A] | 45.8 ± 5.19 | 5.62 ± 0.412 | – | – | 3.8 ± 0.378 | – |
| CC1=C(CO)C(=O)O[C@@H]([C@@H](C)[C@H]2CC[C@H]3[C@@H]4C[C@H]5O[C@]56[C@@H](O)C=CC(=O)[C@]6(C)[C@H]4CC[C@]23C)C1 [WA, Withaferin A] | 43.3 ± 3.77 | 2.58 ± 0.415 | – | – | 1.75 ± 0.376 | SA-β-gal staining, senescent cells (in words) (MCF7 cells [4]): very less number of senescent cells; SA-β-gal staining, senescent cells (in words) (HCT-116 cells [5]): very less number of senescent cells; IC50 at 24 h ([1]; 24 h): 51.1 ± 5.18 µM; IC50 at 72 h ([1]; 72 h): 38.3 ± 5.22 µM; IC50 (HCT-116 cells [2]; Homo sapiens, HCT-116, 24 h, 24 h): 4.38 ± 1.67 µM; IC50 (HCT-116 cells [2]; Homo sapiens, HCT-116, 72 h, 72 h): 2.13 ± 0.55 µM; IC50 (MCF7 cells [3]; Homo sapiens, MCF7, 24 h, 24 h): 9.18 ± 1.36 µM; IC50 (MCF7 cells [3]; Homo sapiens, MCF7, 72 h, 72 h): 1.46 ± 0.291 µM |
| CC1=C(CO)C(=O)OC(C(C)C2CCC3C4CC5OC56C(O)C5ON=C(c7ccc(Br)cc7)C5C(=O)C6(C)C4CCC23C)C1 (stereo not drawn) [W-3b, 4-bromophenyl-2-isoxazoline withaferin A] | – | – | 1.82 ± 0.33 | 15.9 ± 1.67 | – | IC50 (fR2 cells): 85.3 ± 9.5 µM |
| CC1=C(CO)C(=O)OC(C(C)C2CCC3C4CC5OC56C(O)C5ON=C(c7ccc([N+](=O)[O-])cc7)C5C(=O)C6(C)C4CCC23C)C1 (stereo not drawn) [W-2a, 4-nitrophenyl-2-isoxazoline withaferin A] | 52.1 ± 6.6 | – | 5.82 ± 0.418 | 8.2 ± 0.211 | – | – |
| CC1=C(CO)C(=O)OC(C(C)C2CCC3C4CC5OC56C(O)C5ON=C(c7ccc(C(F)(F)F)cc7)C5C(=O)C6(C)C4CCC23C)C1 (stereo not drawn) [W-11b, 4-trifluorophenyl-2-isoxazoline withaferin A] | – | – | 83.3 ± 6.51 | 4.16 ± 0.344 | – | IC50 (fR2 cells): > 100 µM |
| CC1=C(CO)C(=O)OC(C(C)C2CCC3C4CC5OC56C(O)C5ON=C(c7ccc(Br)cc7)C5C(=O)C6(C)C4CCC23C)C1 (stereo not drawn) [W-3a, 4-bromophenyl-2-isoxazoline withaferin A] | > 100 | – | 95.5 ± 5.41 | 45.8 ± 2.34 | – | – |
| CC1=C(CO)C(=O)OC(C(C)C2CCC3C4CC5OC56C(O)C5ON=C(c7ccccc7C(F)(F)F)C5C(=O)C6(C)C4CCC23C)C1 (stereo not drawn) [W-8a, 2-trifluoromethylphenyl-2-isoxazoline withaferin A] | 28.2 ± 4.21 | 7.5 ± 1.13 | – | – | 17.6 ± 1.68 | – |
| O=c1[nH]cc(F)c(=O)[nH]1 [5-FU, 5-fluorouracil, reference compound] | – | – | – | – | – | Inhibition in tumor volume ([6]; Balb/c mice): 78.4%; Inhibition in tumor weight ([6]; vs normal saline group): 86.7% |
| CC1=C(CO)C(=O)O[C@@H]([C@@H](C)C2CCC3C4C[C@H]5O[C@]56[C@@H](O)[C@@H]5ON=C(c7ccc(Cl)cc7)[C@@H]5C(=O)[C@]6(C)C4CC[C@@]32C)C1 (stereo partly drawn) [W-1b, 4-chlorophenyl-2-isoxazoline withaferin A] | 39.2 ± 3.81 | 16.2 ± 0.676 | – | – | 1.64 ± 0.267 | – |
